Read-outs that look alike come from different tables or passages of the source. Positions of bridges follow the written chain, without caps; N, C: chain ends. Non-standard residues stand in square brackets, D forms with d. Residues, ends and D or L forms follow the SMILES beside them. ξ: configuration not given here. Pro(trans-4-F) = O=C(O)[C@@H]1C[C@@H](F)CN1; pY = N[C@@H](Cc1ccc(OP(=O)(O)O)cc1)C(=O)O; Phe(4-NH2) = Nc1ccc(C[C@H](N)C(=O)O)cc1; Phe(4-F) = N[C@@H](Cc1ccc(F)cc1)C(=O)O; d(cisHyp) = O=C(O)[C@H]1C[C@@H](O)CN1; Bta = N[C@@H](Cc1csc2ccccc12)C(=O)O; Hyp = O=C(O)[C@@H]1C[C@@H](O)CN1; NMeF = CN[C@@H](Cc1ccccc1)C(=O)O; dNMeE = CN[C@H](CCC(=O)O)C(=O)O; NMeNle = CCCC[C@H](NC)C(=O)O; NMeM = CN[C@@H](CCSC)C(=O)O; NMeA = CN[C@@H](C)C(=O)O; Orn = NCCC[C@H](N)C(=O)O; Dab = NCC[C@H](N)C(=O)O; Dap = NC[C@H](N)C(=O)O; ξC = NC(CS)C(=O)O; Sar = CNCC(=O)O
Legend:
Human PD-L1/PD-1 = target: T1, Human PD-L1/PD-1 (Homo sapiens, UniProt Q9NZQ7); experiment: HTRF PD-1-Ig/PD-L1-His binding assay (human PD-L1); details: cluster symbol
T1 construct: made in house; host or cells: HEK293T
Procedure, shortened: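 Interaction of Fc-tagged soluble PD-1 with His-tagged soluble PD-L1 is monitored by time-resolved FRET. Donor is europium cryptate anti-Ig (1 nM final) and acceptor is APC anti-His (20 nM final). Assay buffer is dPBS with 0.1% BSA and 0.05% Tween-20.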

[1] = target: T2, LK35.2-hPD-L1 cells / PE-labeled PD-1-Ig (Homo sapiens, UniProt Q9NZQ7); experiment: LK35.2-hPD-L1 cell binding high-content screening assay; format: cell-based; details: cluster symbol
T2 construct: expressed in transfected cells; host or cells: LK35.2 mouse B cell line
Procedure, shortened: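 Mouse LK35.2 B cells stably over-expressing human PD-L1, cultured overnight, treated with compound plus PE-labeled human PD-1-Ig (1 nM final) in RPMI/10% FCS for 1 h at 37 °C. After washing, bound fluorescence quantified by high-content imaging.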

[2] = cell binding assay, cell line not given, read-out: CBA IC50 cluster
[3] = cell line of CBA not given (LK35.2-hPD-L1 or 293T-hPD-L1), read-out: CBA IC50 cluster

T2 sequence (Q9NZQ7 19-290): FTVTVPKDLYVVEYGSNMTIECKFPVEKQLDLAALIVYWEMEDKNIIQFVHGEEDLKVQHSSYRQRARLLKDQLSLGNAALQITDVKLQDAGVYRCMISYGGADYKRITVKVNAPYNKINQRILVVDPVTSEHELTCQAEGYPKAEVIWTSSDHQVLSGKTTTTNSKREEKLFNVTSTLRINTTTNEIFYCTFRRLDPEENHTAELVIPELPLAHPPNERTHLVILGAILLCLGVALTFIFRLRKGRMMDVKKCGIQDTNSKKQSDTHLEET
T1 sequence (Q9NZQ7 with tags, fused parts or gaps): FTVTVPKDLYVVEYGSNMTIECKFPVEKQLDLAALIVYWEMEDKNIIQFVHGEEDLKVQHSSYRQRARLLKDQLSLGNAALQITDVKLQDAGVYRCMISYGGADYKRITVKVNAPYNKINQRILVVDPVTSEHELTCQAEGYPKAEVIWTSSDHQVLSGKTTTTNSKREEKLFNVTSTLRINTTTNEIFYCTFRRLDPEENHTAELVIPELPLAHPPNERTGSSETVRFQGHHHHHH

SMILES	IC50 (Human PD-L1/PD-1; read-out: HTRF IC50 cluster) [nM]	IC50 [1, 2] [nM]	IC50 [1, 3] [nM]	IC50 (Human PD-L1/PD-1; HTRF IC50 cluster) [nM]	IC50 ([1]; CBA IC50 cluster, cell line of CBA not given (LK35.2-hPD-L1 or 293T-hPD-L1)) [nM]
CCCC[C@H]1C(=O)N2C[C@H](O)C[C@@H]2C(=O)N[C@@H](CC(N)=O)C(=O)N[C@@H](C(C)C)C(=O)N(C)[C@@H](Cc2ccccc2)C(=O)N[C@@H](Cc2ccc(O)cc2)C(=O)N(C)[C@H](CCC(=O)O)C(=O)N[C@@H](Cc2c[nH]c3ccccc23)C(=O)N[C@@H](Cc2ccc(O)cc2)C(=O)N[C@@H](CCCCN)C(=O)N[C@H](C(=O)NCC(N)=O)CSCC(=O)N[C@@H](Cc2ccccc2)C(=O)N(C)[C@@H](Cc2ccccc2)C(=O)N1C [Example 3594] ({CH2CO}-F[NMeF][NMeNle][d(cisHyp)]NV[NMeF]Y[dNMeE]WYKCG-NH2; thioether N-13)	6.76 to 30.3	0.158 to 4.71			
CCCC[C@H]1C(=O)N(C)[C@@H](CCSC)C(=O)N[C@@H](C)C(=O)NC(C(=O)NCC(N)=O)CSCC(=O)N[C@@H](Cc2ccc(O)cc2)C(=O)N(C)[C@@H](C)C(=O)N[C@@H](CC(N)=O)C(=O)N2CCC[C@H]2C(=O)N[C@@H](CN)C(=O)N[C@@H](CC(C)C)C(=O)N2CCC[C@H]2C(=O)N[C@@H](Cc2c[nH]c3ccccc23)C(=O)N[C@@H](CO)C(=O)N[C@@H](Cc2csc3ccccc23)C(=O)N1C (stereo partly shown) [Example 9086] ({CH2CO}-Y[NMeA]NP[Dap]LPWS[Bta][NMeNle][NMeM]A[ξC]G-NH2; thioether N-14)	0.385 to 6.74	0.158 to 4.71			
CCCC[C@H]1C(=O)N(C)CC(=O)N[C@@H](CC(=O)O)C(=O)N[C@@H](C(C)C)C(=O)N(C)[C@@H](Cc2ccccc2)C(=O)N[C@@H](Cc2ccc(O)cc2)C(=O)N(C)CC(=O)N[C@@H](Cc2c[nH]c3ccccc23)C(=O)N[C@@H](Cc2ccc(N)cc2)C(=O)N[C@@H](CC(C)C)C(=O)N[C@H](C(=O)NCC(N)=O)CSCC(=O)N[C@@H](Cc2ccccc2)C(=O)N(C)[C@@H](Cc2ccccc2)C(=O)N1C [Example 3140] ({CH2CO}-F[NMeF][NMeNle][Sar]DV[NMeF]Y[Sar]W[Phe(4-NH2)]LCG-NH2; thioether N-13)	6.76 to 30.3		4.78 to 72.9		
CCCC[C@H]1C(=O)N[C@@H](CCCNC(=N)N)C(=O)NC(C(=O)NCC(N)=O)CSCC(=O)N[C@@H](Cc2ccc(O)cc2)C(=O)N(C)[C@@H](C)C(=O)N[C@@H](CC(N)=O)C(=O)N2CCC[C@H]2C(=O)N[C@@H](CN)C(=O)N[C@@H](CC(C)C)C(=O)N2CCC[C@H]2C(=O)N[C@@H](Cc2c[nH]c3ccccc23)C(=O)N[C@@H](CO)C(=O)N[C@@H](Cc2c[nH]c3ccccc23)C(=O)N(C)[C@@H](CCSC)C(=O)N1C (stereo partly shown) [Example 9089] ({CH2CO}-Y[NMeA]NP[Dap]LPWSW[NMeM][NMeNle]R[ξC]G-NH2; thioether N-14)	0.385 to 6.74	0.158 to 4.71			
CCCC[C@H]1C(=O)N(C)CC(=O)N[C@@H](CC(=O)O)C(=O)N[C@@H](C(C)C)C(=O)N(C)[C@@H](Cc2ccccc2)C(=O)N[C@@H](Cc2ccc(O)cc2)C(=O)N(C)CC(=O)N[C@@H](Cc2c[nH]c3ccccc23)C(=O)N[C@@H](Cc2ccc(O)cc2)C(=O)N[C@@H](CC(C)C)C(=O)N[C@H](C(=O)NCC(N)=O)CSCC(=O)N[C@@H](Cc2ccc(OP(=O)(O)O)cc2)C(=O)N(C)[C@@H](Cc2ccccc2)C(=O)N1C [Example 3066] ({CH2CO}-[pY][NMeF][NMeNle][Sar]DV[NMeF]Y[Sar]WYLCG-NH2; thioether N-13)				> 30.5	> 74.3
CCCC[C@H]1C(=O)N(C)[C@@H](CCCC)C(=O)N[C@@H](CCN)C(=O)N[C@H](C(=O)NCC(N)=O)CSCC(=O)N[C@@H](Cc2ccc(O)cc2)C(=O)N(C)[C@@H](C)C(=O)N[C@@H](CC(N)=O)C(=O)N2CCC[C@H]2C(=O)N[C@@H](Cc2c[nH]cn2)C(=O)N[C@@H](CCC(=O)O)C(=O)N2C[C@H](F)C[C@H]2C(=O)N[C@@H](Cc2c[nH]c3ccccc23)C(=O)N[C@@H](CCN)C(=O)N[C@@H](Cc2c[nH]c3ccccc23)C(=O)N1C [Example 13001] ({CH2CO}-Y[NMeA]NPHE[Pro(trans-4-F)]W[Dab]W[NMeNle][NMeNle][Dab]CG-NH2; thioether N-14)	0.385 to 6.74	0.158 to 4.71			
CCCC[C@H]1C(=O)N(C)CC(=O)N[C@@H](CCCNC(=N)N)C(=O)N[C@H](C(=O)NCC(N)=O)CSCC(=O)N[C@@H](Cc2ccccc2)C(=O)N(C)[C@@H](C)C(=O)N[C@@H](CC(N)=O)C(=O)N2CCC[C@H]2C(=O)N[C@@H](Cc2cnc[nH]2)C(=O)N[C@@H](CC(C)C)C(=O)N(C)CC(=O)N[C@@H](Cc2c[nH]c3ccccc23)C(=O)N[C@@H](CO)C(=O)N[C@@H](Cc2c[nH]c3ccccc23)C(=O)N1C [Example 5027] (HELM PEPTIDE1{[O=C(C[*:3])[*:2]].F.[meA].N.P.H.L.[Sar].W.S.W.[CCCC[C@@H](C(=O)[*:2])N(C)[*:1]].[Sar].R.C.G.[am]}$PEPTIDE1,PEPTIDE1,1:R3-15:R3$$$V2.0)	> 30.5	> 74.3			
CCCC[C@H]1C(=O)N(C)CC(=O)N[C@@H](CC(=O)O)C(=O)N[C@@H](C(C)C)C(=O)N(C)[C@@H](Cc2ccccc2)C(=O)N[C@@H](Cc2ccc(O)cc2)C(=O)N(C)CC(=O)N[C@@H](Cc2c[nH]c3ccccc23)C(=O)N[C@@H](Cc2ccc(F)cc2)C(=O)N[C@@H](CC(C)C)C(=O)N[C@H](C(=O)NCC(N)=O)CSCC(=O)N[C@@H](Cc2ccccc2)C(=O)N(C)[C@@H](Cc2ccccc2)C(=O)N1C [Example 3076] ({CH2CO}-F[NMeF][NMeNle][Sar]DV[NMeF]Y[Sar]W[Phe(4-F)]LCG-NH2; thioether N-13)	0.385 to 6.74		4.78 to 72.9		
CCCC[C@H]1C(=O)N(C)[C@@H](CCCC)C(=O)N[C@@H](CCCNC(=N)N)C(=O)N[C@H](C(=O)NCC(N)=O)CSCC(=O)N[C@@H](Cc2ccc(O)cc2)C(=O)N(C)[C@@H](C)C(=O)N[C@@H](CC(N)=O)C(=O)N2CCC[C@H]2C(=O)N[C@@H](CN)C(=O)N[C@@H](CCC(=O)O)C(=O)N2C[C@H](O)C[C@H]2C(=O)N[C@@H](Cc2c[nH]c3ccccc23)C(=O)N[C@@H](CO)C(=O)N[C@@H](Cc2csc3ccccc23)C(=O)N1C [Example 1128] ({CH2CO}-Y[NMeA]NP[Dap]E[Hyp]WS[Bta][NMeNle][NMeNle]RCG-NH2; thioether N-14)	6.76 to 30.3		0.158 to 4.71		
CCCC[C@H]1C(=O)N(C)[C@@H](CCCC)C(=O)N[C@@H](CCCNC(=N)N)C(=O)NC(C(=O)NCC(N)=O)CSCC(=O)N[C@@H](Cc2ccc(O)cc2)C(=O)N(C)[C@@H](C)C(=O)N[C@@H](CC(N)=O)C(=O)N2CCC[C@H]2C(=O)N[C@@H](Cc2cnc[nH]2)C(=O)N[C@@H](CC(N)=O)C(=O)N2CCC[C@H]2C(=O)N[C@@H](Cc2c[nH]c3ccccc23)C(=O)N[C@@H](CO)C(=O)N[C@@H](Cc2csc3ccccc23)C(=O)N1C (stereo partly shown) [Example 9064] ({CH2CO}-Y[NMeA]NPHNPWS[Bta][NMeNle][NMeNle]R[ξC]G-NH2; thioether N-14)	0.385 to 6.74	0.158 to 4.71			
CCCC[C@H]1C(=O)N(C)[C@@H](CCCC)C(=O)N[C@@H](CCCN)C(=O)N[C@H](C(=O)NCC(N)=O)CSCC(=O)N[C@@H](Cc2ccc(O)cc2)C(=O)N(C)[C@@H](C)C(=O)N[C@@H](CC(=O)O)C(=O)N2CCC[C@H]2C(=O)N[C@@H](CN)C(=O)N[C@@H](CCC(=O)O)C(=O)N2C[C@H](O)C[C@H]2C(=O)N[C@@H](Cc2c[nH]c3ccccc23)C(=O)N[C@@H](CCN)C(=O)N[C@@H](Cc2csc3ccccc23)C(=O)N1C [Example 1183] ({CH2CO}-Y[NMeA]DP[Dap]E[Hyp]W[Dab][Bta][NMeNle][NMeNle][Orn]CG-NH2; thioether N-14)	0.385 to 6.74		0.158 to 4.71		
